Assay results from patent US20220095615A1, “NEMATODE DETERRENT COMPOSITIONS” (SALK INSTITUTE FOR BIOLOGICAL STUDIES, priority 2018, published 2022).
Counter-ions that a name gives are not always drawn.

Columns and labels:
C. elegans [1] = assay: Chemotaxis assay for volatile components; format: in vivo, Caenorhabditis elegans; conditions: Benzaldehyde 1:200, 2-nonanone undiluted, 60 min, FIG. 8D
Protocol: Chemotaxis assays were performed on 2% agar square (10 cm) plates containing 5 mM potassium phosphate (pH 6), 1 mM CaCl2, and 1 mM MgSO4. Animals were washed three times in M9 and once in chemotaxis buffer (5 mM potassium phosphate (pH 6), 1 mM CaCl2, and 1 mM MgSO4) and then placed in the middle of the plate (FIG. 8c). Two spots of the collected nematode secretions and two control M9 spots (all 1 μl) were added to opposite sides of the plate, generating gradients of any volatile components in the nematode secretions. Animals were allowed to explore these gradients for 1 h, after which they were counted and the chemotaxis index calculated (FIG. 8d). Benzaldehyde (1:200) and 2-nonanone (undiluted) were used as control attractants and repellents, respectively^25. Nine or more assays were performed on at least three different days. Two-tailed unpaired t-tests were used to compare C. elegans responses to different secretions, and the Bonferroni correction was used to adjust for multiple comparisons.

C. elegans [2] = conditions: literature reference; cited from earlier work
C. elegans [3] = assay: Egg-laying assay; format: in vivo, Caenorhabditis elegans; conditions: predator cue with sertraline (1 mM) for 30 min, egg-laying monitored 60 min after removal, FIG. 4f
Protocol: Synchronized Day 1 adults were treated with M9 control buffer or concentrated predator cue for 30 min. These animals were transferred to a 2-day lawn of 100 μl OP50 bacteria (OD600=0.5) and allowed to lay eggs. Eggs were counted at the time intervals shown. In each condition and genotype, at least 35 animals were analyzed. Average number of eggs and s.e.m. are presented with two-tailed unpaired t-tests with Bonferroni correction for statistical analysis. To test the effect of sulfolipids on egg-laying behavior, these compounds were dissolved in DMSO and further diluted in M9 to obtain the concentrations indicated. Sertraline effects were analyzed by exposing animals to predator cue with or without sertraline (1 mM) for 30 min.

C. elegans [4] = assay: Single animal avoidance assay (avoidance index); format: in vivo, Caenorhabditis elegans; conditions: for activity of synthetic sulfolipids in the avoidance assay: synthetic compounds, FIG. 10a
Protocol: Adult C. elegans were exposed to a small volume of a test compound (0.05 μl) near the head of the animal. Upon sensing a repellent, animals initiate a reversal followed by an omega bend. Positive responses to a test compound were scored only if they occurred within 4 s. Results are shown as the avoidance index, which is the ratio of number of positive responses to the total number of trials. Each animal is tested thrice and data is presented as average of the animals tested on at least 3 days (FIGS. 1-4 and FIGS. 8-13). For Data in FIG. 18b, animals were pre-treated with various drugs at 100 μM for 30 min and then their responses to predator cue were analyzed. Each assay was performed in triplicate (5 animals per condition) and on at least 3 different days […]. For Data shown in FIG. 4, animals were pre-treated with 1 mM Sertraline (Sigma) or M9 control for 3 min before being tested for their responses in the avoidance assay. We also performed additional controls to test whether an animal's response to the three repellent trials were independent.
Two-tailed unpaired t-tests were used to compare different strains, genotypes, and conditions, and the Bonferroni correction was used to adjust for multiple comparisons. Avoidance indices of all strains tested and controls are shown in Supplementary Table S7 of Liu et al., Nature Communications 9: 1128 (2018)).
Adult nematodes were exposed to a small volume of a test compound (0.05 μl) near the head of the animal. Upon sensing a repellent, animals initiate a reversal followed by an omega bend. Positive responses to a test compound were scored only if they occurred within 4 s. Results are shown as the avoidance index, which is the ratio of number of positive responses to the total number of trials. Each animal is tested thrice and data is presented as average of the animals tested on at least 3 days.

Compound: O=Cc1ccccc1 [Benzaldehyde]
- chemotaxis response to control attractant and repellent (C. elegans [1]): strong responses

Compound: CCCCCCCCCCCCOS(=O)(=O)[O-].[Na+] [SDS, sodium dodecyl sulfate]
- C. elegans avoidance cue potency (C. elegans [2]): potent

Compound: CCCCCCCC(C)=O [Sulfolipid 2-nonanone, 2-nonanone]
- chemotaxis response to control attractant and repellent (C. elegans [1]): strong responses

Compound: CN[C@H]1CC[C@@H](c2ccc(Cl)c(Cl)c2)c2ccccc21 [sertraline]
- sertraline effect on predator cue-induced egg-laying response (C. elegans [3]): reduced the longer-lasting egg-laying response
- duration of the drug effects (decay of the sertraline effect) (C. elegans [4]; predator cue, FIG. 13C legend): about 30 minutes
- concentration dependence of suppression of avoidance behavior (C. elegans [4]; predator cue, FIG. 13b): dependent on drug concentration
- duration of suppression of avoidance after the drug was removed (C. elegans [4]; predator cue, FIG. 13c): at least 30 min
- sertraline modulation of avoidance in eat-4 mutants (C. elegans [4]; predator cue, eat-4 (vesicular glutamate transporter) mutants, FIG. 4c): significant sertraline-induced modulation of avoidance behavior
- sertraline effect on behavior of tax-4 or ocr-2 mutants (C. elegans [4]; predator cue, tax-4 or ocr-2 mutants, FIG. 4b): no detectable effect
- sertraline attenuation in unc-25 mutants (C. elegans [4]; predator cue, unc-25 (glutamic acid decarboxylase) mutants, FIG. 4c): defective in sertraline attenuation
- sertraline effect on avoidance to predator cue (C. elegans [4]; wild-type, pre-treated with sertraline (1 mM), FIG. 4a): attenuated avoidance
- sertraline effect on avoidance responses to fructose (C. elegans [4]; wild-type, pre-treated with sertraline, FIG. 4a): attenuated avoidance responses
- sertraline effect on avoidance to purified sulfolipids (C. elegans [4]; wild-type, pre-treated with sertraline, FIG. 13a): attenuated avoidance

Compound: CC(C)CCC(CCCCCCCCCO)OS(=O)(=O)O (stereo not drawn) [sufal #1, 14-hydroxy-2-methyltetradecan-5-yl Hydrogen Sulfate]
- activity of synthetic sulfolipids in the avoidance assay (C. elegans [4]): accounted for most of the isolated activity

Compound: CC(C)CCCC(CCCCCCCCO)OS(=O)(=O)O (stereo not drawn) [sufal #2, 14-hydroxy-2-methyltetradecan-6-yl Hydrogen Sulfate]
- activity of synthetic sulfolipids in the avoidance assay (C. elegans [4]): accounted for most of the isolated activity
